Assay results: patent US9676823B2, “Selective delivery of molecules into cells or marking of cells in diseased tissue regions using environmentally sensitive transmembrane peptide” (priority 2005, dated 2017)
Starred links: 1 amine or outer side, 2 acyl side, 3 side chain; linkers in the order of their positions; H or OH if unused. Positions of bridges follow the written chain, without caps; N, C: chain ends. Non-standard residues stand in square brackets, D forms with d. Residues, ends and D or L forms follow the SMILES beside them. No end group written: not given here. Trp(2-yl) = O=C([C@H](Cc1c([*:3])[nH]c2ccccc12)N[*:1])[*:2]; {TAMRA} = TAMRA dye attached N-terminally via two o linkers; {Cys} = C-terminal o linker then cysteine amide; Leu(4R-OH,5-OH) = C[C@](O)(CO)C[C@H](N)C(=O)O; cisHyp = O=C(O)[C@@H]1C[C@H](O)CN1

How the values were obtained:
actin filaments = conditions: cited from earlier work
HeLa cells [1] = assay: Translocation of PNA into HeLa cells (fluorescence microscopy); assay type: cell-based, human; conditions: PNA without pHLIP, pH 7.4 or 6.5 (data not shown)
Human tumor MDA-MB-231 = assay: Whole-body fluorescence imaging of nude mice bearing MDA-MB-231 tumor; assay type: in vivo, mouse; conditions: 100 μl of 50 μM into tail vein, 3 mm tumor; time point not stated
Description: To study the pHLIP distribution in vivo, covalently attached to the pHLIP near […] infrared fluorescent dye Cy5.5 was injected into mice bearing tumor and performed whole-body fluorescence imaging. Human tumor MDA-MB-231 was originated by injection of tumor cells (2×10^7 cells/flank/0.2 ml) in the right flank of adult athymic female nude mice. When the tumor reached the size of 3 mm in diameter, 100 μl of 50 μM of Cy5.5 alone or Cy5.5 covalently attached to the pHLIP was given as a single injection into vein tail. The imaging was performed immediately, after 1, 2, 4 hour and next day after 24 hours (FIGS. 9 and 10). The dye and peptide-dye accumulated in liver and kidney, the organs, which usually readily absorb any compounds. The ratios of (liver+kidney)/tumor were 5.9 and 3.6 in mice to which dye alone and pHLIP-dye were injected accumulation for mice. […] The accumulation of pHLIP-Cy5.5 in tumor was in 1.6 times higher than accumulation of dye alone. The ration of (liver+kidney)/tumor was 1.6 and 2.6 for pHLIP-Cy5.5 and Cy5.5 alone, respectively.
Human breast adenocarcinoma MDA-MB-231 (HTB-26, ATCC) cells was cultured in Leibovitz's L-15 medium supplemented with 10% fetal bovine serum, 100 units/ml penicillin, 0.1 mg/ml streptomycin, 2 mM glutamine in humidified atmosphere of 5% CO2 and 95% air at 37° C. […]

HeLa cells [2] = conditions: literature report; cited from earlier work
HeLa cells [3] = assay: Translocation and release of Phalloidin-TRITC in HeLa cells (fluorescence microscopy of actin filaments); assay type: cell-based, human; conditions: pH 6.0-7.4, in the presence or absence of peptide (not conjugated)
Source text: To test the ability of pHLIP to translocate peptides across the cell membrane a water soluble cyclic peptide, phalloidin, from the Amanita phalloicles mushroom was chosen. […] Fluorescent phalloidin is commonly used to label actin filaments in permealized cells. Actin filaments stained with fluorescent phalloidin have an easily recognizable filamentous pattern, which cannot be mistaken for the other cellular structures, organelles or membrane staining. Therefore the delivery of fluorescent phalloidin by pHLIP into live cells can easily be verified by fluorescence microscopy. Fluorescently labeled phalloidin (Phalloidin-TRITC) via an S-S bond to the C-terminus of pHLIP was conjugated using a bifunctional cross-linker. Cells were incubated with a pHLIP-S-S-Phalloidin-TRITC cleavable construct at different pHs and subsequently washed with cell culture medium solution, pH 7.4. […]
For the fluorescence microscopy studies, the cells were grown in 35 mm dishes with 10 mm glass bottom windows coated with collagen. […] The medium pH was measured before and after incubation. […] Fluorescent images were taken using an inverted epi-fluorescence microscope Olympus IX71. […] Each time fluorescence microscopy experiments were performed and observed the translocation of cargo by pHLIP, it was verified that the labeled cells were alive by using of dead cell marker SYTOX-Green (Molecular Probes).

HeLa cells [4] = assay: pH-dependent delivery of dansyl dye into live HeLa cells (fluorescence microscopy); assay type: cell-based, human; conditions: dye alone, without peptide
Description: pHLIP conjugated via a disulfide bond to dansyl dye (FIG. 3a) was tested for delivery of the dye into live HeLa cells at different pHs (FIG. 3b). The cells were incubated with the fluorescently-labeled peptide for 15 min at pH 5.5, 6.5, 7.0 or 7.4 and then washed at pH 7.4 to remove any reversibly bound peptide. […] The relative uptakes were 18%, 48%, 78% and 100% at pH7.4, 7.0, 6.5 and pH5.5, respectively.
For the fluorescence microscopy studies, the cells were grown in 35 mm dishes with 10 mm glass bottom windows coated with collagen. Cells were washed with PBS buffer containing 1 mM CaCl2 and 1 mM MgCl2 with pH 5.5, 6.5, 7.0 or 7.4 and then incubated in PBS at the experimental pH in the absence or presence of varied concentrations (0.1-7 μM) of the pHLIP-S-S-dansyl, pHLIP-dye (TexasRed or Rhodamine), pHLIP-S-S-Phalloidin-TRITC, pHLIP-Phalloidin-TRITC or pHLIP-S-S-PNA-TAMRA constructs. The medium pH was measured before and after incubation. The time of incubation was varied from 15 to 60 min. […] Fluorescent images were taken using an inverted epi-fluorescence microscope Olympus IX71. […] Each time fluorescence microscopy experiments were performed and observed the translocation of cargo by pHLIP, it was verified that the labeled cells were alive by using of dead cell marker SYTOX-Green (Molecular Probes).

HeLa cells [5] = assay: Cytotoxicity assay (CellTiter 96 AQueous One colorimetric); assay type: cell-based, human; conditions: concentrations up to 16 μM, 24 hrs, physiological conditions
Description: (§1) The peptide's cytotoxicity and its ability to induce membrane leakage was investigated. […] Membrane leakage was tested by incubation of HeLa cells at various concentrations of peptide (up to 10 μM) at pH 7.4 and 6.5 for 1 hr, followed by the addition of cell-impermeable agents: Phalloidin-TRITC and nuclear-staining SYTOX-Orange. […] The uptake of Phalloidin-TRITC or SYTOX-Orange was 10 times less than the uptake in cells treated with triton, which used for cell membrane permeabilization.
Cytotoxicity was tested using a standard colorimetric assay according to an established protocol provided by Promega, Inc. HeLa cells were loaded in the wells of 96 well plates (20,000 cells per well), incubated for 24 hours in DMEM supplemented with 10% FBS, 100 units/ml penicillin, 0.1 mg/ml streptomycin, 2 mM glutamine in a humidified atmosphere of 5% CO2 and 95% air at 37° C. The growth medium was then replaced with the same medium but containing 1% of FBS and increasing amounts of pHLIP (0.5, 1, 2, 4, 8 and 16 μM). After 24 hours of incubation, the solution was replaced with DMEM and a colorimetric reagent (CellTiter 96 AQueous One Solution Assay) was added for 1 hour followed by measuring absorbance at 490 nm in the plate-reader. All samples were prepared in triplicate.

HeLa cells [6] = assay: Membrane leakage assay with cell-impermeable Phalloidin-TRITC and SYTOX-Orange; assay type: cell-based, human; conditions: peptide up to 10 μM, 1 hr, pH 6.5 or 7.4
Description: as §1
HeLa cells were loaded in 96 well plates (2,000 cells per well), incubated for 24 hours in DMEM supplemented with 10% FBS, 100 units/ml penicillin, 0.1 mg/ml streptomycin, 2 mM glutamine in a humidified atmosphere of 5% CO2 and 95% air at 37° C. The growth medium was then replaced with PBS buffer containing 1 mM CaCl2 and 1 mM MgCl2 at pH7.4 or 6.5 and increasing amounts of the peptide (0.5, 2, 5 and 10 μM). After 1 hour, 2 μM of Phalloidin-TRITC and 0.5 μM of SYTOX-Orange (Molecular Probes) were added for 10 min and, then, washed with PBS buffer, pH7.4. The rhodamine fluorescence was measured at 580 nm with excitation at 544 nm by plate-reader. The cell membrane was subsequently disrupted by adding 0.5% Triton-100 and a new portion of the 2 μM of Phalloidin-TRITC and 0.5 μM of SYTOX-Orange followed by washing with PBS. The fluorescence signal was detected before and after washing, respectively. […]

mice = assay: Toxicity study in mice, single intravenous injection; assay type: in vivo, mouse; conditions: single intravenous injection 4 mg/kg, female and male mice, observed 6 weeks
Description: Preliminary toxicity study was carried out. 100 μl of 150 μM of peptide was given as a single injection in vein tail to 4 female C3D2F1 and 4 male C57/B1 mice. The final concentration was 4 mg/kg. Mice were observed by a veterinarian the day after an injection and during the next 6 weeks.

For C[C@@H]1NC(=O)[C@H](C[C@@](C)(O)CO)NC(=O)[C@@H]2Cc3c([nH]c4ccccc34)SC[C@H](NC(=O)[C@@H]([C@H](C)O)NC1=O)C(=O)N1C[C@@H](O)C[C@H]1C(=O)N[C@@H](C)C(=O)N2 [Phalloidin] (cyclo(A[dT]C[cisHyp]A[Trp(2-yl)][Leu(4R-OH,5-OH)]); thioether 3-6), which “lowering of the critical concentration for actin polymerization” value (actin filaments) is on record?
Its value is “up to 30 fold”.

Which “translocation through the cell membrane” value (HeLa cells [1]) does the source give for “TAMRA-o-o-CATAGTATAAGT-o-Cys-NH2 (all peptide nucleic acid (PNA), 5' {TAMRA}, 3' {Cys}) [PNA-TAMRA]” here?
Its value is “No translocation”.

For CCN1\C(=C/C=C/C=C/C2=[N+](CCCCCC(=O)O)c3ccc4c(S(=O)(=O)O)cc(S(=O)(=O)O)cc4c3C2(C)C)C(C)(C)c2c1ccc1c(S(=O)(=O)[O-])cc(S(=O)(=O)O)cc21 [Cy5.5], which “ratio of (liver+kidney)/tumor, first statement” value (Human tumor MDA-MB-231) is on record?
The value was 5.9.

What about the “ratio of (liver+kidney)/tumor, second statement” value (Human tumor MDA-MB-231) of the same molecule?
The value was 2.6.

For C/C1=C\[C@H](C)C[C@H](C)OC(=O)C[C@H](c2ccc(O)cc2)NC(=O)[C@@H](Cc2c(Br)[nH]c3ccccc23)N(C)C(=O)[C@H](C)NC(=O)[C@@H](C)C1 [Jasplakinolide], which “multinucleation of cells (reported)” value (HeLa cells [2]) is on record?
Its value is “appearance of multinucleated cells”.

Which “fluorescent staining of actin filaments” value (HeLa cells [3]) does the source give for Phalloidin-TRITC here?
The value was “did not give fluorescent staining of actin filaments”.

Which penetration of cells (HeLa cells [4]) does the source give for dansyl here?
The penetration of cells was “does not penetrate cells”.

What does the source list for “AAEQNPIYWARYADWLFTTPLLLLDLALLVDADEGTCG [pHLIP]”?
cell viability (HeLa cells [5]): does not affect cell viability; uptake of Phalloidin-TRITC or SYTOX-Orange in peptide-treated cells (HeLa cells [6]): no increase in uptake; uptake of Phalloidin-TRITC or SYTOX-Orange relative to cells treated with triton (HeLa cells [6]): 10 times less; physiological and behavioral changes (mice): No physiological and behavioral changes
